Results from US20060110787A1, “Use of fluorine-18-labeled fluoroquinolone antibiotics for diagnosing and monitoring bacterial infection” (The Board Trustees of the University of Arkansas, priority 2004, published 2006).

System: bacterial infections (bone, wound, respiratory and other)
Assay: PET scan imaging of human subjects after intravenous injection of the 18F-labeled fluoroquinolone
Format: in vivo
Conditions: 700 to 1400 MBq i.v.; PET scan 30 to 60 minutes after injection; patients with various bacterial infections vs healthy subjects
Description: [^18F]ciprofloxacin administration to human subjects suspected of having bacterial infection and PET monitoring of the localization of [^18F] in the subjects. Healthy subjects are injected intravenously with 700 to 1400 MBq of [^18F]ciprofloxacin. In order to correct for the attenuation of photons by tissue, a transmission scan with two 400-MBq pin sources or from CT data (if the scan is acquired on a PET/CT scanner) is recorded after obtaining the emission scan. Thirty to sixty minutes after injection of [^18F]ciprofloxacin, data are obtained by PET scan of the regions of concern (such as the whole body or a specific area such as the hip or chest, depending on the clinical need) . Each subject is positioned supine on the imaging bed. The data on healthy subjects establish the appearance of the distribution of [^18F]ciprofloxacin in uninfected patients.
The same protocol is used on patients diagnosed by other criteria with bacterial bone infections, bacterial wound infections, bacterial respiratory infections, and other bacterial infections.
Healthy subjects and subjects confirmed by conventional diagnostic methods to have bacterial infections of various types are injected intravenously with 700 to 1400 MBq of [^18F]fleroxacin. After 30 to 60 minutes, the subjects are subjected to PET scan imaging as described in Example 1.

In the case of O=C(O)c1cn(C2CC2)c2cc(N3CCNCC3)c(F)cc2c1=O [[^18F]ciprofloxacin], the “PET scan results of patients with bacterial infections versus healthy volunteers” value is reported as “distinguishable from the PET scan results of healthy volunteers”.
[^18F]fleroxacin was tested, and the “PET scan results of patients with bacterial infections versus healthy volunteers” value was “distinguishable from the PET scan results of healthy volunteers”.
